Laboratory results: patent US20250144067A1, “PERSONALIZED STARVATION THERAPY FOR CANCER” (Faeth Therapeutics, Inc., priority 2021, published 2025)
Where two headings read alike, the source gives them in different places.

Experiments:
[1] = test system: NCI-H292 lung cancer cells; experiment: FDA drug screening, complete media vs cholesterol-free media with simvastatin (TABLE 2); format: cell-based, human
[2] = test system: NCI-H292 lung cancer cells; experiment: FDA drug screening, complete media vs cholesterol-free media without statin (TABLE 1); format: cell-based, human
[3] = NCI-H292 cells, cholesterol-free media with simvastatin 0.04 μM, FDA drug library screen (TABLE 2)
[4] = NCI-H292 cells, complete media, FDA drug library screen (TABLE 2)
[5] = complete media minus cholesterol-free media + simvastatin (0.04 μM), >0 enhanced anti-cancer activity, about 0 neutral, <0 antagonist
[6] = NCI-H292 cells, cholesterol-free media without statin, FDA drug library screen
[7] = NCI-H292 cells, complete media, FDA drug library screen
[8] = NCI-H292 cells, cholesterol-free media with simvastatin 0.04 μM, cell growth value in FDA drug screen
[9] = NCI-H292 cells, complete media, cell growth value in FDA drug screen
[10] = complete media minus cholesterol-free media + simvastatin, >0 enhanced anti-cancer activity, about 0 neutral, <0 antagonist
[11] = Complete minus Cholesterol-free, greater than 0 enhanced anti-cancer activity, about 0 neutral, below 0 antagonists
[12] = NCI-H292 cells in cholesterol-free media without statin
[13] = NCI-H292 cells in complete media
[14] = NCI-H292 cells, drug in cholesterol-free media with simvastatin 0.04 μM
[15] = NCI-H292 cells, drug in complete media
[16] = complete media vs cholesterol-free media + simvastatin (0.04 μM), […]
[17] = Complete minus Cholesterol-free, […]
[18] = NCI-H292 cells, cholesterol-free media without statin
[19] = NCI-H292 cells, FDA drug library screen, cholesterol-free media with simvastatin 0.04 μM
[20] = Complete minus Cholesterol-free, >0 enhanced anti-cancer activity, about 0 neutral, <0 antagonist
[21] = complete media vs cholesterol-free media + simvastatin (0.04 μM), >0 enhanced anti-cancer activity, about 0 neutral, <0 antagonist
[22] = complete vs cholesterol-free media, greater than 0 enhanced anti-cancer activity, about 0 neutral, below 0 antagonists
[23] = complete vs cholesterol-free media, […]
[24] = NCI-H292 cells, FDA drug library screen, complete media
[25] = Complete minus Cholesterol-free, greater than 0 enhanced anti-cancer activity, about 0 neutral, below 0 antagonist
[26] = NCI-H292 cells, FDA drug library screen, cholesterol-free media without statin

With `NC(=O)CC[C@H](N)C(=O)O` [L-Glutamine] the “Cholesterol-free media + simvastatin (0.04 μM)” value [1, 3] was 0.8178, the “Complete Media” value [1, 4] was 0.7954 and the Difference [1, 5] was −0.02. The Cholesterol-free [2, 6] was 1.026, the Complete [2, 7] was 1.522 and the Difference ([2]; complete vs cholesterol-free media, >0 enhanced anti-cancer activity, about 0 neutral, <0 antagonist) was 0.50.
In the case of `N[C@@H](Cc1c[nH]cn1)C(=O)O` [L-Histidine], the “Cholesterol-free media + simvastatin (0.04 μM)” value [1, 8] is reported as 1.86, the “Complete Media” value [1, 9] is reported as 1.878 and the Difference [1, 10] is reported as 0.02. The Difference [2, 11] was −0.88, the Cholesterol-free [2, 12] was 2.131 and the Complete [2, 13] was 1.254.
For `CN1[C@@H]2CC[C@H]1C[C@@H](OC(=O)[C@H](CO)c1ccccc1)C2` [L-Hyoscyamine], the “Cholesterol-free media + simvastatin (0.04 μM)” value [1, 14] was 1.192, the “Complete Media” value [1, 15] was 1.027 and the Difference [1, 16] was −0.16. It also gave a Difference [2, 17] of −0.26, a Cholesterol-free [2, 18] of 1.23 and a Complete ([2]; NCI-H292 cells, complete media) of 0.9714.
In the case of `CC[C@H](C)[C@H](N)C(=O)O` [L-Isoleucine], the “Cholesterol-free media + simvastatin (0.04 μM)” value [1, 19] is reported as 2.302, the Difference [1, 5] is reported as −1.28 and the Difference [2, 20] is reported as 0.06. It also gave a Cholesterol-free [2, 6] of 1.023 and a Complete [2, 7] of 1.082.
With `C[C@H](O)C(=O)O` [L-Lactic acid] the “Cholesterol-free media + simvastatin (0.04 μM)” value [1, 14] was 1.063, the “Complete Media” value [1, 15] was 0.8704 and the Difference [1, 21] was −0.19. The Cholesterol-free [2, 18] was 1.267, the Complete ([2]; NCI-H292 cells, complete media) was 0.8145 and the Difference [2, 22] was −0.45.
With `CC(C)C[C@H](N)C(=O)O` [L-Leucine] the “Cholesterol-free media + simvastatin (0.04 μM)” value [1, 14] was 1.064, the “Complete Media” value [1, 15] was 0.8826 and the Difference [1, 16] was −0.18. For the same compound, the Cholesterol-free [2, 6] was 1.354, the Complete [2, 7] was 1.837 and the Difference [2, 23] was 0.48.
For `Cl.NCCCC[C@H](N)C(=O)O` [L-Lysine hydrochloride], the “Cholesterol-free media + simvastatin (0.04 μM)” value [1, 19] was 1.192, the “Complete Media” value [1, 24] was 1.079 and the Difference [1, 16] was −0.11. For the same compound, the Difference [2, 17] was −0.25, the Cholesterol-free [2, 18] was 1.006 and the Complete ([2]; NCI-H292 cells, complete media) was 0.7519.
In the case of `NCCCC[C@H](N)C(=O)O` [L-Lysine], the “Cholesterol-free media + simvastatin (0.04 μM)” value ([1]; NCI-H292 cells, FDA library drug in cholesterol-free media with simvastatin 0.04 μM) is reported as 1.021, the “Complete Media” value ([1]; NCI-H292 cells, FDA library drug in complete media) is reported as 0.7295 and the Difference [1, 16] is reported as −0.29. The Difference [2, 17] was −0.24, the Cholesterol-free [2, 18] was 1.096 and the Complete ([2]; NCI-H292 cells, complete media) was 0.8592.
`CSCC[C@H](N)C(=O)O` [L-Methionine] was tested, and the “Cholesterol-free media + simvastatin (0.04 μM)” value [1, 8] was 0.8406, the “Complete Media” value [1, 9] was 0.8869 and the Difference [1, 10] was 0.05. For the same compound, the Difference [2, 25] was −0.12, the Cholesterol-free [2, 26] was 0.9015 and the Complete [2, 24] was 0.7822.
`Cl.NCCC[C@H](N)C(=O)O` [L-Ornithine (hydrochloride)] was tested, and the “Cholesterol-free media + simvastatin (0.04 μM)” value [1, 3] was 0.8763, the “Complete Media” value [1, 4] was 0.8132 and the Difference [1, 5] was −0.06. For the same compound, the Difference [2, 25] was −0.11, the Cholesterol-free [2, 26] was 1.434 and the Complete [2, 24] was 1.328.
`NCCC[C@H](N)C(=O)O` [L-Ornithine] was tested, and the “Cholesterol-free media + simvastatin (0.04 μM)” value [1, 19] was 0.9484, the “Complete Media” value [1, 24] was 1.47 and the Difference [1, 10] was 0.52. The Cholesterol-free [2, 18] was 1.429, the Complete ([2]; NCI-H292 cells, complete media) was 1.042 and the Difference [2, 22] was −0.39.
`N[C@@H](Cc1ccccc1)C(=O)O` [L-Phenylalanine] was tested, and the “Cholesterol-free media + simvastatin (0.04 μM)” value [1, 14] was 0.988, the “Complete Media” value [1, 15] was 0.7918 and the Difference [1, 21] was −0.20. For the same compound, the Difference [2, 20] was −0.24, the Cholesterol-free [2, 18] was 1.103 and the Complete ([2]; NCI-H292 cells, complete media) was 0.8607.
For `O=C(O)[C@@H]1CCCN1` [L-Proline], the “Cholesterol-free media + simvastatin (0.04 μM)” value [1] was 1.794, the “Complete Media” value [1] was 1.088 and the Difference [1] was −0.71. For the same compound, the Cholesterol-free [2] was 1.37, the Complete [2] was 0.9909 and the Difference [2] was −0.38.
With `C[Se]CC[C@H](N)C(=O)O` [L-SelenoMethionine] the “Cholesterol-free media + simvastatin (0.04 μM)” value [1, 19] was 1.886, the “Complete Media” value [1, 24] was 1.795 and the Difference [1, 21] was −0.09. The Difference [2, 11] was −0.92, the Cholesterol-free [2, 12] was 2.252 and the Complete [2, 13] was 1.327.
For `N[C@@H](CO)C(=O)O` [L-Serine], the “Cholesterol-free media + simvastatin (0.04 μM)” value [1, 14] was 1.125, the “Complete Media” value [1, 15] was 0.9461 and the Difference [1, 16] was −0.18. It also gave a Cholesterol-free [2, 18] of 1.3, a Complete ([2]; NCI-H292 cells, complete media) of 0.9649 and a Difference [2, 23] of −0.33.
